Experimental data published in US7049080B2, “Process for detecting serine/threonine kinase activity” (priority 2000, dated 2006).
Non-standard residues stand in square brackets, D forms with d. *: point of attachment. 5‑TAMRA = CN(C)c1ccc2c(-c3ccc(C(=O)*)cc3C(=O)[O-])c3ccc(N(C)C)cc3[o+]c2c1; pY = N[C@@H](Cc1ccc(OP(=O)(O)O)cc1)C(=O)O; pT = C[C@@H](OP(=O)(O)O)[C@H](N)C(=O)O; AEEA = NCCOCCOCC(=O)O

What was measured:
[1] = target: polyclonal phospho-JNK antibody NEB #9251; assay: Binding of polyclonal phospho-JNK antibody to TAMRA-labelled peptides (fluorescence polarization); parameters: species or system rabbit; details: antibody 1:20, peptide 5 nM, read-out: KD, affinity of polyclonal phospho-JNK antibody for peptide
Description: The polarization values dramatically increase when using the double-phosphorylated peptide substrate P1*^∘ in contrast to mono-phosphorylated labelled peptide P1^∘ (sequence see above).
Measurement of the Binding Affinity (KD) of Antibody NEB #9251:
This polyclonal antibody detects all three isoforms of the SAPK1/JNK proteins only when they are activated by dual phosphorylation at threonine183/tyrosine185. Binding of poly-clonal phospho-JNK antibody (at a dilution of 1:20) from NEB to TAMRA-labelled P1^∘- and P1*^∘ peptides (each 5 nM) was measured by fluorescence polarization.

[2] = system: NEB antibody #9251; assay: FP controls conjugate/high/low (Example 7); assay type: binding, rabbit; details: 0 h
Method: The following reagents have been used (the compositions of the buffers and specifications of the reagents are explained in more detail later on): Hepes buffer, MgCl2 10 mM, ATP 20 μM, P1^∘ peptide at 100 μM, NEB antibody # 9251 1:20 dilution, P1*^∘-TAMRA 5 nM, Pluronic 0.1%, MKK7 at 0, 0.005, 0.02, 0.08, 0.2, 0.5 and 2 μM.
After addition of MKK7, the enzyme reactions were performed in Nunc chambers at RT. The samples were continuously measured at different time points by Fluorescence polarization.
(§1) Bis-phosphorylated peptide P1*^∘ can be used as competitor, resulting in free labelled ligand called “low” or “negative control”. This can be seen in the following table 1.

[3] = system: NEB antibody #9251; assay: FP controls conjugate/high/low (Example 8); assay type: binding, rabbit; details: 0 h
Method: The following reagents have been used (explanations later on): Hepes buffer, MgCl2 (10 mM), ATP (20 μM), P1^∘ peptide (100 μM), polyclonal antibody NEB #9251 (1:20), P1*^∘-TAMRA (5 nM), Pluronic (0.1%), BSA (0.01%), MKK7 at (0.04, 0.08 and 0.2 μM), EDTA (10 mM) (all final conc.).
The enzyme reactions were performed in Eppendorf reaction tubes at RT. Aliquots of 20 μl were withdrawn from the reactions at different time points and mixed with 10 μl STOP solution. The stopped reactions were incubated at RT for at least 30 min and measured by Fluorescence Polarization.
as §1

[4] = target: Anti active SAPK1/JNK-specific polyclonal antibody, New England Biolabs NEB #9251; assay: fluorescence polarization, 200 nM P1*° competing with TAMRA-P1*° (5 nM) for antibody 1:20, 0 h
[5] = target: Anti active SAPK1/JNK-specific polyclonal antibody, New England Biolabs NEB #9251; assay: fluorescence correlation spectroscopy, competition with TAMRA-P1*° (5 nM) for the NEB antibody (1:20)
[6] = target: Anti active SAPK1/JNK-specific polyclonal antibody, New England Biolabs NEB #9251; assay: fluorescence polarization, competition with TAMRA-P1*° (5 nM) for NEB #9251 (1:20) in presence of 100 µM P1° substrate peptide, 20 µM ATP, 10 mM MgCl2
[7] = target: Anti active SAPK1/JNK-specific polyclonal antibody, New England Biolabs NEB #9251; assay: competition with TAMRA-P1*° (5 nM) for the antibody, competitor up to 1 µM (FIG. 3)

5-TAMRA-AEEA-Lys-Phe-Met-Met-pThr-Pro-pTyr-Val-Val-Thr-Arg-NH2 ({5‑TAMRA-AEEA}-KFMM[pT]P[pY]VVTR-NH2; SMILES CSCC[C@H](NC(=O)[C@H](Cc1ccccc1)NC(=O)[C@H](CCCCN)NC(=O)COCCOCCNC(=O)c1ccc(-c2c3ccc(N(C)C)cc3[o+]c3cc(N(C)C)ccc23)c(C(=O)[O-])c1)C(=O)N[C@@H](CCSC)C(=O)N[C@H](C(=O)N1CCC[C@H]1C(=O)N[C@@H](Cc1ccc(OP(=O)(O)O)cc1)C(=O)N[C@H](C(=O)N[C@H](C(=O)N[C@H](C(=O)N[C@@H](CCCNC(=N)N)C(N)=O)[C@@H](C)O)C(C)C)C(C)C)[C@@H](C)OP(=O)(O)O) [P1*^∘-TAMRA]
Kd [1]: 2.6 nM
Fluorescence Polarization ([2]; Conjugate alone): 39.7 mP
Fluorescence Polarization ([2]; High: + NEB ab (1:20)): 139.1 mP
Fluorescence Polarization ([3]; Conjugate alone): 33.2 mP
Fluorescence Polarization ([3]; High: + NEB ab (1:20)): 145.7 mP

H-Lys-Phe-Met-Met-pThr-Pro-pTyr-Val-Val-Thr-Arg-NH2 (H-KFMM[pT]P[pY]VVTR-NH2; SMILES CSCC[C@H](NC(=O)[C@H](Cc1ccccc1)NC(=O)[C@@H](N)CCCCN)C(=O)N[C@@H](CCSC)C(=O)N[C@H](C(=O)N1CCC[C@H]1C(=O)N[C@@H](Cc1ccc(OP(=O)(O)O)cc1)C(=O)N[C@H](C(=O)N[C@H](C(=O)N[C@H](C(=O)N[C@@H](CCCNC(=N)N)C(N)=O)[C@@H](C)O)C(C)C)C(C)C)[C@@H](C)OP(=O)(O)O) [P1*^∘]
Fluorescence Polarization ([2]; Low: P1*°-Tamra + NEB ab (1:20) + competitor 200 nM): 84.5 mP

B1: P1*° peptide, H-Lys-Phe-Met-Met-pThr-Pro-pTyr-Val-Val-Thr-Arg-NH2 (peptide)
peptide: H-KFMM[pT]P[pY]VVTR-NH2
SMILES: CSCC[C@H](NC(=O)[C@H](Cc1ccccc1)NC(=O)[C@@H](N)CCCCN)C(=O)N[C@@H](CCSC)C(=O)N[C@H](C(=O)N1CCC[C@H]1C(=O)N[C@@H](Cc1ccc(OP(=O)(O)O)cc1)C(=O)N[C@H](C(=O)N[C@H](C(=O)N[C@H](C(=O)N[C@@H](CCCNC(=N)N)C(N)=O)[C@@H](C)O)C(C)C)C(C)C)[C@@H](C)OP(=O)(O)O
fluorescence polarization [4]: 84.5 mP
IC50 [5]: 5 nM
IC50 [6]: 35.1 nM

B2: P1* peptide, H-Lys-Phe-Met-Met-pThr-Pro-Tyr-Val-Val-Thr-Arg-NH2 (peptide)
peptide: H-KFMM[pT]PYVVTR-NH2
SMILES: CSCC[C@H](NC(=O)[C@H](Cc1ccccc1)NC(=O)[C@@H](N)CCCCN)C(=O)N[C@@H](CCSC)C(=O)N[C@H](C(=O)N1CCC[C@H]1C(=O)N[C@@H](Cc1ccc(O)cc1)C(=O)N[C@H](C(=O)N[C@H](C(=O)N[C@H](C(=O)N[C@@H](CCCNC(=N)N)C(N)=O)[C@@H](C)O)C(C)C)C(C)C)[C@@H](C)OP(=O)(O)O
percent of the bound ligand displaced [7]: < 50%

B3: P1° peptide, H-Lys-Phe-Met-Met-Thr-Pro-pTyr-Val-Val-Thr-Arg-NH2 (peptide)
peptide: H-KFMMTP[pY]VVTR-NH2
SMILES: CSCC[C@H](NC(=O)[C@H](Cc1ccccc1)NC(=O)[C@@H](N)CCCCN)C(=O)N[C@@H](CCSC)C(=O)N[C@H](C(=O)N1CCC[C@H]1C(=O)N[C@@H](Cc1ccc(OP(=O)(O)O)cc1)C(=O)N[C@H](C(=O)N[C@H](C(=O)N[C@H](C(=O)N[C@@H](CCCNC(=N)N)C(N)=O)[C@@H](C)O)C(C)C)C(C)C)[C@@H](C)O
percent of the bound ligand displaced [7]: < 50%
